Experiments:
[1] = system: influenza virus; set-up: species or system small mice; conditions: in vivo
[2] = system: influenza; conditions: in vivo; cited from earlier work
[3] = in vivo; cited from earlier work

Row | SMILES | small mouse protection ratio (ED50) [1] [mg/kg] | median day for alleviating influenza symptoms [2] [days] | reduction from average influenza case [2] [days] | utilization ratio of oral taken drug [3] [%]
1 | NC(=O)c1ncn([C@@H]2O[C@H](CO)[C@@H](O)[C@H]2O)n1 [Ribavirin] | 25 | – | – | –
2 | CC(=O)N[C@H]1[C@H]([C@H](O)[C@H](O)CO)OC(C(=O)O)=C[C@@H]1N=C(N)N [Zanamivir] | – | 6.5 | 1.3 | 2

Reference: US20050003022A1 (priority 2002, published 2005)
